# Read-outs that look alike come from different tables or passages of the source.
# Columns and labels:
# [1] = test system: BET BD2; details: public sources, not a head-to-head trial, cited from earlier work; for BD2: comparator BET inhibitors
# [2] = molecular target: T1, BRD4 BD2 (Homo sapiens, UniProt O60885); experiment: NanoBRET bromodomain assay, NanoLuc-BRD4-BD2 in HEK293 cells; assay type: binding; details: for Selectivity (BD1/BD2) / BD2: nanoBRET assay, given as symbol only; for Selectivity (BD1/BD2): higher number denotes higher selectivity; for BD2: lower number denotes higher potency
# T1 construct: HEK293 cells were transfected using NanoLuc-BRD4-BD1 or NanoLuc-BRD4-BD2 fusion vectors
# Protocol: Plates were then incubated at 37° C.+5% CO2 incubator for 2 hours.
# Fold Selectivity Calculated (IC50 BD1/IC50 BD2).
Structure (SMILES),BD2 [1] [nM],Selectivity (BD1/BD2) [2],BD2 [2],also measured
CNC(=O)c1cc(C(=O)NC2CC2)cn(Cc2ccccc2)c1=O [GSK620],79,,,
CCNC(=O)c1cc2c(-c3cc(C(C)(C)O)ccc3Oc3c(C)cc(F)cc3C)cn(C)c(=O)c2[nH]1 [ABBV-744],28,,,"Selectivity (BD1/BD2) ([1]; FRET, comparator): 753x (FRET)"
"COCCn1cc(-c2ccccc2)c(-c2cn(C)c(=O)c3[nH]c(-c4cnn(C(F)(F)F)c4)cc23)cc1=O [Compound B, 4-(1-(2-methoxyethyl)-2-oxo-5-phenyl-1,2-dihydropyridin-4-yl)-6-methyl-2-(1-(trifluoromethyl)-1H-pyrazol-4-yl)-1,6-dihydro-7H-pyrrolo[2,3-c]pyridin-7-one]",,>>>>,≤,
"Cn1cc(-c2ccccc2)c(-c2cn(C)c(=O)c3[nH]c(-c4cnn(C(F)(F)F)c4)cc23)cc1=O [Compound A, 6-methyl-4-(1-methyl-2-oxo-5-phenyl-1,2-dihydropyridin-4-yl)-2-(1-(trifluoromethyl)-1H-pyrazol-4-yl)-1,6-dihydro-7H-pyrrolo[2,3-c]pyridin-7-one]",,>>>>,<,"selectivity for BDII relative to GSK620 [2]: greater than about two orders of magnitude; EC50 ([2]; previously determined, reference level for rat plasma concentrations (FIG. 4D), read-out: free EC50 BD2 BRD4 (converted)): 18.9 nM; EC50 ([2]; reference level for dog plasma concentrations (Dog PK study #4), read-out: free EC50 BD2 BRD4 (converted)): 14.5 nM; EC50 ([2]; stated with the CIA study PK, domain not stated, read-out: free EC50 (converted)): 17.2 nM"
